In ChEMBL document CHEMBL5325441, “Current and emerging therapies for Achondroplasia: The dawn of precision medicine” (2023):
Active and inactive are the calls of the source. No cut-off for these calls is given here.

What was measured:
Bone [1] = experiment: Induction of bone regrowth in achondroplasia C57BL/6 mouse model expressing FGFR3 Y367C mutant assessed as improvement in dwarfism by measuring foramen magnum bone size at 2 mg/kg, sc administered for 15 days; type: functional; details: time 15 day
Bone [2] = experiment: Induction of bone regrowth in achondroplasia C57BL/6 mouse model expressing FGFR3 Y367C mutant assessed as improvement in dwarfism by measuring femur bone size at 2 mg/kg, sc administered for 15 days; type: functional; details: time 15 day
Bone [3] = experiment: Induction of bone regrowth in achondroplasia C57BL/6 mouse model expressing FGFR3 Y367C mutant assessed as improvement in dwarfism by measuring tail bone size at 2 mg/kg, sc administered for 15 days; type: functional; details: time 15 day
Bone [4] = experiment: Induction of bone regrowth in achondroplasia C57BL/6 mouse model expressing FGFR3 Y367C mutant assessed as improvement in dwarfism by measuring L4-L6 spine segment size at 2 mg/kg, sc administered for 15 days; type: functional; details: time 15 day
Bone [5] = experiment: Induction of bone regrowth in achondroplasia C57BL/6 mouse model expressing FGFR3 Y367C mutant assessed as improvement in dwarfism by measuring tibia bone size at 0.5 mg/kg, sc qd administered for 15 days; type: functional; details: time 15 day
Bone [6] = experiment: Induction of bone regrowth in achondroplasia C57BL/6 mouse model expressing FGFR3 Y367C mutant assessed as improvement in dwarfism by measuring anterior-posterior diameter of the skull size at 2 mg/kg, sc administered for 15 days; type: functional; details: time 15 day
Bone [7] = experiment: Induction of bone regrowth in achondroplasia C57BL/6 mouse model expressing FGFR3 Y367C mutant assessed as improvement in dwarfism by measuring tibia bone size at 2 mg/kg, sc administered for 15 days; type: functional; details: time 15 day
Bone [8] = experiment: Induction of bone regrowth in achondroplasia C57BL/6 mouse model expressing FGFR3 Y367C mutant assessed as improvement in dwarfism by measuring ulna bone size at 0.5 mg/kg, sc qd administered for 15 days; type: functional; details: time 15 day
Bone [9] = experiment: Induction of bone regrowth in achondroplasia C57BL/6 mouse model expressing FGFR3 Y367C mutant assessed as improvement in dwarfism by measuring ulna bone size at 2 mg/kg, sc administered for 15 days; type: functional; details: time 15 day
Bone [10] = experiment: Induction of bone regrowth in achondroplasia C57BL/6 mouse model expressing FGFR3 Y367C mutant assessed as improvement in dwarfism by measuring humerus bone size at 2 mg/kg, sc administered for 15 days; type: functional; details: time 15 day
Bone [11] = experiment: Induction of bone regrowth in achondroplasia C57BL/6 mouse model expressing FGFR3 Y367C mutant assessed as improvement in dwarfism by measuring humerus bone size at 0.5 mg/kg, sc qd administered for 15 days; type: functional; details: time 15 day
Bone [12] = experiment: Induction of bone regrowth in achondroplasia C57BL/6 mouse model expressing FGFR3 Y367C mutant assessed as improvement in dwarfism by measuring femur bone size at 0.5 mg/kg, sc qd administered for 15 days; type: functional; details: time 15 day
Bone [13] = experiment: Induction of bone regrowth in achondroplasia FVB mouse model assessed as improvement in dwarfism by measuring femur size at 203 microg/kg, sc qd administered for 35 days; type: functional; details: dose 203 µg/kg, time 35 day
Bone [14] = experiment: Induction of bone regrowth in achondroplasia FVB mouse model assessed as improvement in dwarfism by measuring spine size at 203 microg/kg, sc administered as continuous infusion for 35 days; type: functional; details: dose 203 µg/kg, time 35 day
Bone [15] = experiment: Induction of bone regrowth in achondroplasia FVB mouse model assessed as improvement in dwarfism by measuring tibia size at 203 microg/kg, sc administered as continuous infusion for 35 days; type: functional; details: dose 203 µg/kg, time 35 day
Bone [16] = experiment: Induction of bone regrowth in achondroplasia FVB mouse model assessed as improvement in dwarfism by measuring femur size at 203 microg/kg, sc administered as continuous infusion for 35 days; type: functional; details: dose 203 µg/kg, time 35 day
Bone [17] = experiment: Induction of bone regrowth in achondroplasia FVB mouse model assessed as improvement in dwarfism by measuring tibia size at 203 microg/kg, sc qd administered for 35 days; type: functional; details: dose 203 µg/kg, time 35 day
[18] = Induction of bone regrowth in achondroplasia Cynomolgus monkey model assessed as improvement in dwarfism by measuring ulna size at 203 microg/kg, sc qd administered for 35 days; type: functional, Macaca fascicularis; details: dose 203 µg/kg, time 35 day
[19] = Induction of bone regrowth in achondroplasia Cynomolgus monkey model assessed as improvement in dwarfism by measuring tail size at 203 microg/kg, sc qd administered for 35 days; type: functional, Macaca fascicularis; details: dose 203 µg/kg, time 35 day
Bone [20] = experiment: Induction of bone regrowth in achondroplasia FVB mouse model assessed as improvement in dwarfism by measuring spine size at 203 microg/kg, sc qd administered for 35 days; type: functional; details: dose 203 µg/kg, time 35 day
Bone [21] = experiment: Induction of bone regrowth in achondroplasia mouse model assessed as improvement in dwarfism by measuring tibia bone size at 800 microg/kg, sc qd administered for 21 days; type: functional, organism-based; details: dose 800.0 µg/kg, time 21.0 day
Bone [22] = experiment: Induction of bone regrowth in achondroplasia mouse model expressing FGFR3 Y367C mutant assessed as improvement in dwarfism by measuring femur bone size at 240 microg/kg, sc qd administered for 21 days; type: functional, organism-based; details: dose 240.0 µg/kg, time 21.0 day
Bone [23] = experiment: Induction of bone regrowth in achondroplasia mouse model assessed as improvement in dwarfism by measuring tail bone size at 800 microg/kg, sc qd administered for 21 days; type: functional, organism-based; details: dose 800.0 µg/kg, time 21.0 day
Bone [24] = experiment: Induction of bone regrowth in achondroplasia mouse model assessed as improvement in dwarfism by measuring anterior-posterior diameter of the skull size at 800 microg/kg, sc qd administered for 21 days; type: functional, organism-based; details: dose 800.0 µg/kg, time 21.0 day
Bone [25] = experiment: Induction of bone regrowth in achondroplasia mouse model expressing FGFR3 Y367C mutant assessed as improvement in dwarfism by measuring foramen magnum bone size at 240 microg/kg, sc qd administered for 21 days; type: functional, organism-based; details: dose 240.0 µg/kg, time 21.0 day
Bone [26] = experiment: Induction of bone regrowth in achondroplasia mouse model expressing FGFR3 Y367C mutant assessed as improvement in dwarfism by measuring tibia bone size at 240 microg/kg, sc qd administered for 21 days; type: functional, organism-based; details: dose 240.0 µg/kg, time 21.0 day
Bone [27] = experiment: Induction of bone regrowth in achondroplasia mouse model assessed as improvement in dwarfism by measuring L4-L6 spine segment size at 800 microg/kg, sc qd administered for 21 days; type: functional, organism-based; details: dose 800.0 µg/kg, time 21.0 day
Bone [28] = experiment: Induction of bone regrowth in achondroplasia mouse model expressing FGFR3 Y367C mutant assessed as improvement in dwarfism by measuring L4-L6 spine segment size at 240 microg/kg, sc qd administered for 21 days; type: functional, organism-based; details: dose 240.0 µg/kg, time 21.0 day
Bone [29] = experiment: Induction of bone regrowth in achondroplasia mouse model assessed as improvement in dwarfism by measuring foramen magnum bone size at 800 microg/kg, sc qd administered for 21 days; type: functional, organism-based; details: dose 800.0 µg/kg, time 21.0 day
Bone [30] = experiment: Induction of bone regrowth in achondroplasia mouse model assessed as improvement in dwarfism by measuring femur bone size at 800 microg/kg, sc qd administered for 21 days; type: functional, organism-based; details: dose 800.0 µg/kg, time 21.0 day
Bone [31] = experiment: Induction of bone regrowth in achondroplasia mouse model expressing FGFR3 Y367C mutant assessed as improvement in dwarfism by measuring anterior-posterior diameter of the skull size at 240 microg/kg, sc qd administered for 21 days; type: functional, organism-based; details: dose 240.0 µg/kg, time 21.0 day
Bone [32] = experiment: Induction of bone regrowth in achondroplasia mouse model expressing FGFR3 Y367C mutant assessed as improvement in dwarfism by measuring tail bone size at 240 microg/kg, sc qd administered for 21 days; type: functional, organism-based; details: dose 240.0 µg/kg, time 21.0 day

## CCN1CCN(c2ccc(Nc3cc(N(C)C(=O)Nc4c(Cl)c(OC)cc(OC)c4Cl)ncn3)cc2)CC1 [INFIGRATINIB]
Bone [1]
  Activity: 16.8%
Bone [2]
  Activity: 20.9%
Bone [3]
  Activity: 26.5%
Bone [4]
  Activity: 12.1%
Bone [5]
  Activity: 16%
Bone [6]
  Activity: 20.9%
Bone [7]
  Activity: 32.6%
Bone [8]
  Activity: 11%
Bone [9]
  Activity: 22.3%
Bone [10]
  Activity: 11.9%
Bone [11]
  Activity: 7%
Bone [12]
  Activity: 11%

## CC[C@H](C)[C@@H]1NC(=O)[C@H](CCCNC(=N)N)NC(=O)[C@H](CC(=O)O)NC(=O)[C@H](CC(C)C)NC(=O)[C@H](CCCCN)NC(=O)[C@H](CC(C)C)NC(=O)CNC(=O)[C@H](Cc2ccccc2)NC(=O)[C@@H](NC(=O)CNC(=O)[C@H](CCCCN)NC(=O)[C@H](CO)NC(=O)[C@H](CC(C)C)NC(=O)CNC(=O)[C@H](CCCCN)NC(=O)[C@H](CCCCN)NC(=O)[C@H](CC(N)=O)NC(=O)[C@H](C)NC(=O)CNC(=O)[C@H](CCCCN)NC(=O)[C@H](Cc2ccc(O)cc2)NC(=O)[C@H](CCCCN)NC(=O)[C@H](CCCNC(=N)N)NC(=O)[C@H](C)NC(=O)[C@H](CC(N)=O)NC(=O)[C@@H]2CCCN2C(=O)[C@H](Cc2c[nH]cn2)NC(=O)[C@H](CCC(=O)O)NC(=O)[C@H](CCC(N)=O)NC(=O)[C@@H](N)CC(C)C)CSSC[C@@H](C(=O)O)NC(=O)CNC(=O)[C@H](CC(C)C)NC(=O)CNC(=O)[C@H](CO)NC(=O)[C@H](CCSC)NC(=O)[C@H](CO)NC(=O)CNC1=O
Bone [13]
  Activity: 5.5%
Bone [14]
  Activity: 25%
Bone [15]
  Activity: 12.2%
Bone [16]
  Activity: 7.1%
Bone [17]
  Activity: 4%
[18]
  Activity: 2.7%
[19]
  Activity: 9%
Bone [20]
  Activity: 11.3%

## VOSORITIDE
Bone [21]
  Activity: 6.6%
Bone [22]
  Activity: 3.4%
Bone [23]
  Activity: 8%
Bone [24]
  Activity: 4.8%
Bone [25]
  Activity: inactive
Bone [26]
  Activity: 3.7%
Bone [27]
  Activity: 3.3%
Bone [28]
  Activity: 2.8%
Bone [29]
  Activity: inactive
Bone [30]
  Activity: 5.2%
Bone [31]
  Activity: 2.9%
Bone [32]
  Activity: inactive
